Source: patent US12344610B2, “APOL1 inhibitors and methods of use” (Maze Therapeutics, Inc., priority 2022, dated 2025)

Tests used:
Assay type in all cases: cell-based
[1] = system: HEK293 clonal cell line overexpressing APOL1 G1; experiment: APOL1 G1 HEK293 cell rescue assay (Example B3); details: Homo sapiens, HEK293, HEK293 clonal line overexpressing APOL1 G1; geometric mean of at least 2 runs; † = single run; ¥ = concentration at 50% rescue estimated (no sigmoidal curve)
Method in brief: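 HEK293 clonal line overexpressing APOL1 G1; EC50 is half-maximal reversal of APOL1-induced cell death. Values are the geometric mean of ≥2 runs on separate days, each run the average of duplicate wells. Where no sigmoidal curve could be fitted, the concentration giving 50% rescue was estimated.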

[2] = target: T1, APOL1 G2 (Homo sapiens, UniProt O14791, DEL388-389); experiment: APOL1-mediated calcium transport (calcium influx) assay, HEK T-REx/GCaMP6f/APOL1 G2 K6.3 cells, FLIPR TETRA; details: prevention of calcium influx; geometric mean of at least 2 assay runs; † = average of a technical replicate from a single assay run
T1 construct: expressed in transfected cells; host or cells: HEK293 T-REx clonal line stably expressing GCaMP6f (HEK T-REx/GCaMP6f/APOL1 G2 K6.3), doxycycline induced
T1 sequence (O14791 with tags, fused parts or gaps DEL388-389): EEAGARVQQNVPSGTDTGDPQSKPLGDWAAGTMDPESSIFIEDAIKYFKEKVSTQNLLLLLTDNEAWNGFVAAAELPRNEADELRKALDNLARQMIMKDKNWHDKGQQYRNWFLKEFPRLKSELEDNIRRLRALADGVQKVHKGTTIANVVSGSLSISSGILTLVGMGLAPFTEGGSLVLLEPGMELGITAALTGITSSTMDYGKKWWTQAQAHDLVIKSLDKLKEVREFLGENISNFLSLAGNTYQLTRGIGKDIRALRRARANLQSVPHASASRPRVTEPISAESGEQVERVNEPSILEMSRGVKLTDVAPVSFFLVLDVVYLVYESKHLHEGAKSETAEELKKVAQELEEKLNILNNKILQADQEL
Method in brief: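 A HEK293 T-REx clone stably expressing GCaMP6f had APOL1 G2 induced with doxycycline (20 ng/mL solution added) for 6 h. Cells were then washed into Ca2+-free Tyrode's buffer (pH 7.4) and preincubated with compounds (duplicate 8-point) for 10 min at room temperature. Ca2+ injection to 5 mM final produced FLIPR GCaMP fluorescence, giving AC50 for influx inhibition (geometric mean, ≥2 runs).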

[3] = system: HEK293 cells overexpressing APOL1 G2; experiment: APOL1 G2 HEK293 cell rescue assay (reversal of cell death caused by overexpression of APOL1); details: Homo sapiens, HEK293, HEK293 overexpressing APOL1 G2; geometric mean of at least 2 assay runs; † = single assay run
Method in brief: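 EC50 is the half-maximal effective concentration for reversing cell death driven by APOL1 G2 overexpression in HEK293 cells. Reported as geometric mean of at least 2 runs on separate days, each run averaging duplicate wells per plate; some values from a single run.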

Structure (SMILES)	EC50 [1] [nM]	AC50 [2] [nM]	EC50 [3] [nM]
CS(=O)(=O)c1ccc(OCCN2CCC3(CC2)C(=O)Nc2ccc(C#N)cc23)cc1F [Compound 74, 1′-[2-(3-fluoro-4-methanesulfonylphenoxy)ethyl]-2-oxo-1,2-dihydrospiro[indole-3,4′-piperidine]-5-carbonitrile]	471	781	167
CC(=O)N1CCCc2cc(OCCN3CCC4(CC3)C(=O)Nc3ccc(Cl)cc34)cnc21 [Compound 80, 1′-{2-[(8-acetyl-5,6,7,8-tetrahydro-1,8-naphthyridin-3-yl)oxy]ethyl}-5-chloro-1,2-dihydrospiro[indole-3,4′-piperidin]-2-one]	178	375	65.7
CC(=O)N1CCCc2cc(OCCN3CCC4(CC3)C(=O)Nc3ccc(C#N)cc34)cnc21 [Compound 81, 1′-{2-[(8-acetyl-5,6,7,8-tetrahydro-1,8-naphthyridin-3-yl)oxy]ethyl}-2-oxo-1,2-dihydrospiro[indole-3,4′-piperidine]-5-carbonitrile]	948	549	280
CN1C(=O)C(C)(C)c2cc(OCCN3CCC4(CC3)C(=O)Nc3ccc(C#N)cc34)ccc21 [Compound 83, 2-oxo-1′-{2-[(1,3,3-trimethyl-2-oxo-2,3-dihydro-1H-indol-5-yl)oxy]ethyl}-1,2-dihydrospiro[indole-3,4′-piperidine]-5-carbonitrile]	788	718	247
O=C1NCC2c3ccc(OCCN4CCC5(CC4)C(=O)Nc4ccc(Cl)cc45)cc3CCN12 (stereo not drawn) [Compound 115, 5-chloro-1′-[2-({3-oxo-1H,2H,3H,5H,6H,10bH-imidazo[4,3-a]isoquinolin-8-yl}oxy)ethyl]-1,2-dihydrospiro[indole-3,4′-piperidin]-2-one]	199	472	94.9
N#Cc1ccc2c(c1)C1(CCN(CCOc3ccc4c(c3)CCN3C(=O)NCC43)CC1)C(=O)N2 (stereo not drawn) [Compound 118, 2-oxo-1′-[2-({3-oxo-1H,2H,3H,5H,6H,10bH-imidazo[4,3-a]isoquinolin-8-yl}oxy)ethyl]-1,2-dihydrospiro[indole-3,4′-piperidine]-5-carbonitrile]	~2100	1040	431
O=C1CCC2c3ccc(OCCN4CCC5(CC4)C(=O)Nc4ccc(Cl)cc45)cc3CCN12 (stereo not drawn) [Compound 121, 5-chloro-1′-[2-({3-oxo-1H,2H,3H,5H,6H,10bH-pyrrolo[2,1-a]isoquinolin-8-yl}oxy)ethyl]-1,2-dihydrospiro[indole-3,4′-piperidin]-2-one]	249	508	81.2
N#Cc1ccc2c(c1)C1(CCN(CCOc3ccc4c(c3)CCN3C(=O)CCC43)CC1)C(=O)N2 (stereo not drawn) [Compound 124, 2-oxo-1′-[2-({3-oxo-1H,2H,3H,5H,6H,10bH-pyrrolo[2,1-a]isoquinolin-8-yl}oxy)ethyl]-1,2-dihydrospiro[indole-3,4′-piperidine]-5-carbonitrile]	920	727	297
Cc1cc(OCCN2CCC3(CC2)C(=O)Nc2ccc(C#N)cc23)cc(C)c1S(C)(=O)=O [Compound 130, 1′-[2-(4-methanesulfonyl-3,5-dimethylphenoxy)ethyl]-2-oxo-1,2-dihydrospiro[indole-3,4′-piperidine]-5-carbonitrile]	253	525	92.3
CC(c1ccc(OCCN2CCC3(CC2)C(=O)Nc2ccc(C#N)cc23)cc1)S(C)(=O)=O (stereo not drawn) [Compound 133, 1′-{2-[4-(1-methanesulfonylethyl)phenoxy]ethyl}-2-oxo-1,2-dihydrospiro[indole-3,4′-piperidine]-5-carbonitrile]	885	671	203
CC(c1c(F)cc(OCCN2CCC3(CC2)C(=O)Nc2ccc(Cl)cc23)cc1F)S(C)(=O)=O (stereo not drawn) [Compound 141, 5-chloro-1′-{2-[3,5-difluoro-4-(1-methanesulfonylethyl)phenoxy]ethyl}-1,2-dihydrospiro[indole-3,4′-piperidin]-2-one]	204	954	48
CS(=O)(=O)c1ccc(OCCN2CCC3(CC2)C(=O)N(CCO)c2ccc(C#N)cc23)cc1C(F)(F)F [Compound 159, 1-(2-hydroxyethyl)-1′-{2-[4-methanesulfonyl-3-(trifluoromethyl)phenoxy]ethyl}-2-oxo-1,2-dihydrospiro[indole-3,4′-piperidine]-5-carbonitrile]	588	1010	168
N#Cc1ccc2c(c1)C1(CCN(CCOc3ccc4c(c3)CNC4=O)CC1)C(=O)N2 [Compound 170, 2-oxo-1′-{2-[(1-oxo-2,3-dihydro-1H-isoindol-5-yl)oxy]ethyl}-1,2-dihydrospiro[indole-3,4′-piperidine]-5-carbonitrile]	~2300	1310	803
O=C1NCc2cc(OCCN3CCC4(CC3)C(=O)Nc3ccc(Cl)cc34)ccc21 [Compound 171, 5-chloro-1′-{2-[(1-oxo-2,3-dihydro-1H-isoindol-5-yl)oxy]ethyl}-1,2-dihydrospiro[indole-3,4′-piperidin]-2-one]	228	598	100
CC1(Oc2ncc(OCCN3CCC4(CC3)C(=O)Nc3ccc(C#N)cc34)cn2)COC1 [Compound 173, 1′-[2-({2-[(3-methyloxetan-3-yl)oxy]pyrimidin-5-yl}oxy)ethyl]-2-oxo-1,2-dihydrospiro[indole-3,4′-piperidine]-5-carbonitrile]	1160	908	289
O=C1Nc2ccc(Cl)cc2C12CCN(CCOc1ccc(C3CCCS3(=O)=O)cc1)CC2 (stereo not drawn) [Compound 175, 2-[4-(2-{5-chloro-2-oxo-1,2-dihydrospiro[indole-3,4′-piperidin]-1′-yl}ethoxy)phenyl]-1λ^6-thiolane-1,1-dione]	153	381	63.1
N#Cc1ccc2c(c1)C1(CCN(CCOc3ccc(C4CCCS4(=O)=O)cc3)CC1)C(=O)N2 (stereo not drawn) [Compound 178, 1′-{2-[4-(1,1-dioxo-1λ^6-thiolan-2-yl)phenoxy]ethyl}-2-oxo-1,2-dihydrospiro[indole-3,4′-piperidine]-5-carbonitrile]	1190	550	256
O=C1OC2(COC2)c2ccc(OCCN3CCC4(CC3)C(=O)Nc3ccc(Cl)cc34)cc21 [Compound 179, 5-chloro-1′-(2-{3-oxo-3H-spiro[2-benzofuran-1,3′-oxetan]-5-yloxy}ethyl)-1,2-dihydrospiro[indole-3,4′-piperidin]-2-one]	484	655	164
CS(=O)(=O)C1(c2ccc(OCCN3CCC4(CC3)C(=O)Nc3ccc(C#N)cc34)cc2)CC2(COC2)C1 [Compound 183, 1′-[2-(4-{6-methanesulfonyl-2-oxaspiro[3.3]heptan-6-yl}phenoxy)ethyl]-2-oxo-1,2-dihydrospiro[indole-3,4′-piperidine]-5-carbonitrile]	~5800	1520	702
CS(=O)(=O)Nc1ccc(OCCN2CCC3(CC2)C(=O)N(CCO)c2ccc(Cl)cc23)cc1C(F)(F)F [Compound 186, N-(4-{2-[5-chloro-1-(2-hydroxyethyl)-2-oxo-1,2-dihydrospiro[indole-3,4′-piperidin]-1′-yl]ethoxy}-2-(trifluoromethyl)phenyl)methanesulfonamide]	98.8	524	35.9
CS(=O)(=O)C1(c2ccc(OCCN3CCC4(CC3)C(=O)Nc3ccc(C#N)cc34)cc2)CCOCC1 [Compound 187, 1′-{2-[4-(4-methanesulfonyloxan-4-yl)phenoxy]ethyl}-2-oxo-1,2-dihydrospiro[indole-3,4′-piperidine]-5-carbonitrile]	1260	1220	268
CC(=O)N1CCc2cc(OCCN3CCC4(CC3)C(=O)Nc3ccc(Cl)cc34)ccc2C1 [Compound 194, 1′-{2-[(2-acetyl-1,2,3,4-tetrahydroisoquinolin-6-yl)oxy]ethyl}-5-chloro-1,2-dihydrospiro[indole-3,4′-piperidin]-2-one]	414	600	246
